# Key:
# [1] = test system: 15 resistant strains and their parents; assay: Cross-resistance panel, asexual blood stage proliferation EC50 fold shifts (all strains); type: cell-based, Plasmodium falciparum; details: for EC50 fold-shifts in resistant lines relative to parent clones: loss of efficacy in some resistant lines
# Text: (§1) To evaluate potential overlapping activity against known antimalarial drug targets, we performed dose-response studies with each compound against our assembled set of drug-resistant lines and their corresponding parents, in an asexual blood stage proliferation assay (Table 1). Comparisons were made to the drug-sensitive strain 3D7 when a parent was unavailable (TM90C2A, W2 and Dd2). As laboratories conducted EC50 assays with different strains and protocols, all comparisons were made between assays from the same laboratory and under the same assay conditions. Compounds displaying >5-fold EC50 shifts relative to the parent or sensitive strain were flagged as having potentially non-novel targets. Average fold shifts per strain ranged from 0.82 to 2.34, with a median of 1.23 indicating there was not common resistance to any one resistant clone. No resistance patterns were observed when classifying the compounds based on chemical structure, but this was not surprising given the diversity of compounds chosen. […]
# (§2) The 48-h assay was carried out in a 96-well format following standard methods using the ^3H-hypoxanthine incorporation assay. […] Radioactivity was measured using a microbeta counter. […] All assays were conducted in triplicate using three independently grown cultures, and EC50 values were determined using the XLfit add-in module for Excel (version 2.3.1) from Grafit (version 5.3.1.3), where parameter h is the assay hill slope, x is the compound concentration and y is the inhibition of growth effect. […]
# (§3) Alternatively, a SYBR Green-based proliferation approach was used for the 72-h assay, as previously described. […] Following incubation, 10 × SYBR Green I (Invitrogen; supplied in 10,000 × concentration) in lysis buffer ([…], 5 mM EDTA, 0.16% Saponin wt per vol and 1.6% Triton X vol per vol) was added to the wells and the plates were incubated overnight at room temperature before plate reading. […]
# [2] = test system: PfATP4-Mut2 (PfATP4 P412L, parent W2); assay: Cross-resistance EC50 assay, PfATP4-Mut2; type: cell-based, Plasmodium falciparum
# Text: as §1, §2, §3
# [3] = Hepatocyte toxicity; type: cell-based, human; details: human; read-out: HepG2 EC50 (hepatocyte toxicity)
# Outline: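 HepG2 cells were pretreated with compound for 2 h, then infected with fresh P. berghei sporozoites. After 48 h, exoerythrocytic-form viability was read by BrightGlo luminescence; hepatocyte toxicity was tested in parallel. EC50s came from 12-point curves run in duplicate, starting at 5 μM or 50 μM.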
# [4] = test system: PfATP4-Mut1 (PfATP4 V178I, parent W2); assay: Cross-resistance EC50 assay, PfATP4-Mut1; type: cell-based, Plasmodium falciparum; details: loss of efficacy
# Text: as §1, with “clone.” for “clone. No resistance patterns were observed when classifying the compounds based on chemical structure, but this was not surprising given the diversity of compounds chosen.”
# as §2
compound,measurement,setting,value
Cc1c(C)n(Cc2ccc(F)cc2)c2ccc(C(=O)NCc3ccco3)cc12 [MMV008149],EC50 fold-shifts in resistant lines relative to parent clones,[1],> 5 fold
CCN(CC)S(=O)(=O)c1ccc(-c2csc(Nc3ccc(C)c(C)c3)n2)cc1 [MMV009108],"EC50 fold-shift, ATP4-Mut2 vs parent",[2],23 ×
COc1ccccc1CNC(=O)CCn1c(=O)[nH]c2ccsc2c1=O [MMV019066],EC50 fold-shifts in resistant lines relative to parent clones,[1],> 5 fold
CN(C)S(=O)(=O)c1cc(-c2ccc3nccc(-c4cccc(S(N)(=O)=O)c4)c3c2)cnc1N [MMV024038],EC50,[3],146 nM
CC(C)c1cccc(C(NC(=O)C2Cc3ccccc3CN2C(=O)c2cccc(N3CCOCC3)c2)C2CCCC2)c1 (centres unmarked) [MMV028038],"EC50 fold-shift, ATP4-Mut2 vs parent",[2],5 ×
CN(C)CCCN(C)C(=O)C1Cc2cc(-c3ccccc3)ccc2N1S(=O)(=O)c1ccccc1 (centres unmarked) [MMV028895],"EC50 fold-shift, other Dd2 clones compared with 3D7, average","[1]; Dd2-derived clones, average",5.5 ×
O=C(Nc1ccsc1C(=O)NC1CCCCC1)c1ccc(F)cc1 [MMV665939],"EC50 fold-shift, PfATP4-Mut2 compared with 3D7",[2]; loss of efficacy,18.9 ×
same,"EC50 fold-shift, PfATP4-Mut1 compared with 3D7",[4],16.6 ×

# — publication PMC4912613, “A broad analysis of resistance development in the malaria parasite” (Nature Communications, 2016)
